“And” between values parts separate entries of the source, which are not always exact repeats. Equal entries are not always repeated. Where two headings read alike, the source gives them in different places.
How the values were obtained:
[1] = system: NO production in rat primary microglia; test: LPS-induced NO production (nitrite) in rat primary microglia; type: cell-based
[2] = system: IL-1β production in rat primary microglia; test: LPS-induced IL-1β production (ELISA) in rat primary microglia; type: cell-based
Experimental: Determination of TNF-α and IL-1β in culture supernatants Cells were stimulated with LPS in serum-free media for 24 h in the presence or absence of forskolin or rolipram, and concentrations of TNF-α and IL-1β were measured in culture supernatants by using high-sensitivity enzyme-linked immunosorbent assay (R&D Systems, USA) according to the manufacturer's instructions.

[3] = Plasma total cholesterol in X-ALD patients on lovastatin; type: in vivo, human; settings: individual patients, at six months (Patients 1, 2, 3, 6, 7), four months (Patient 4), three months (Patient 5)
NF-kβ = type: cell-based, rat
Experimental: Preparation of Nuclear Extracts and Electrophoretic Mobility shift assay Nuclear extracts from stimulated or unstimulated astrocytes (1×10^7 cells) were prepared using the method of Dignam et al. (1983) with slight modification. Cells were harvested, washed twice with ice-cold phosphate-buffered saline and lysed in 400 μl of buffer A (10 mM HEPES, pH 7.9, 10 mM KCl, 2 mM MgCl2, 0.5 mM DTT, 1 mM PMSF, 5 μg/ml aprotinin, 5 μg/ml pepstatin A, and 5 μg/ml leupeptin (Sigma, St. Louis, Mo.) containing 0.1% Nondet P-40 for 15 min on ice, vortexed vigorously for 15 s, and centrifuged at 14,000 rpm for 30 s. The pelleted nuclei were resuspended in 40 μl of buffer B (20 mM HEPES, pH 7.9, 25% (v/v) glycerol, 0.42 M NaCl, 1.5 mM MgCl2, 0.2 mM EDTA, 0.5 mM DTT, 1 mM PMSF, 5 μg/ml aprotinin, 5 μg/ml pepstatin A, and 5 μg/ml leupeptin). After 30 min on ice, lysates were centrifuged at 14,000 rpm for 10 min. Supernatants containing the nuclear proteins were diluted with 20 μl of modified buffer C (20 mM HEPES, pH 7.9, 20% (v/v) glycerol, 0.05 M KCl, 0.2 mM EDTA, 0.5 mM DTT, and 0.5 mM PMSF) and stored at −70° C. until use. Nuclear extracts were used for the electrophoretic mobility shift assay using the NF-kβ DNA binding protein detection system kit (GIBCO/BRL), according to the manufacturer's protocol.
Preparation of nuclear extracts and electrophoretic mobility shift assay Nuclear extracts from stimulated or unstimulated astrocytes (1×10^7 cells) were prepared as described (Dignam et al., 1983) with slight modification. Cells were harvested, washed twice with ice-cold phosphate-buffered saline and lysed in 400 μl of buffer A (10 mM HEPES, pH 7.9, 10 mM KCl, 2 mM MgCl2, 0.5 mM DTT, 1 mM PMSF, 5 μg/ml aprotinin, 5 μg/ml pepstatin A, and 5 μg/ml leupeptin) containing 0.1% Nonidet P40 for 15 min on ice, vortexed vigorously for 15 s, and centrifuged at 14,000 rpm for 30 s. […]

TNF-α = type: in vivo, Lewis rats
Experimental: One group of animals induced for EAE was left untreated while another group of animals was not induced for EAE and used as the control group.
Immunohistochemistry Brains were fixed in 10% buffered formalin (Stephens Scientific, Riverdale, N.J.). The tissues were embedded in paraffin and sectioned at 4 μm. Sections were then stained for various cytokines and cell markers as described below. For single-label immunohistochemistry, sections were incubated with either anti-iNOS antibody (1:100, rabbit polyclonal, Calbiochem, LaJolla, Calif.) or anti-TNF-α antibody (1:100, rabbit polyclonal, Genzyme, Cambridge, Mass.) or anti-IFN-γ antibody (1:200, rabbit polyclonal, Biosource International, Camarillo, Calif.) essentially as described for other antibodies (Hooper et al., 1997). The tissue sections were further incubated with FITC conjugated anti-rabbit IgG (1:100, Sigma, St. Louis, Mo.), mounted with mounting media (EMS) and analyzed by immunofluorescence microscopy (Olympus) using Adobe photoshop software. For immunofluorescent double-labeling, sections were incubated first with anti-iNOS (1:100) followed by macrophage marker ED1 (1:100, mouse monoclonal, Biosource International, Camarillo, Calif.). Anti-iNOS was visualized using TRITC conjugated anti-rabbit IgG—(1:100, Sigma, St. Louis, Mo.) and ED1 using FITC conjugated anti-mouse IgG (1:100, Sigma, St. Louis, Mo.). […]

[4] = Microglia, 10 μM lovastatin or 5 mM NaPA 8 h, then LPS 1.0 μg/ml, 24 h

CC[C@H](C)C(=O)O[C@H]1C[C@@H](C)C=C2C=C[C@H](C)[C@H](CC[C@@H]3C[C@@H](O)CC(=O)O3)[C@H]21 [Lovastatin]
Production of NO [1, 4]: 5.9 ± 0.4 nmol/24 h/mg protein
Production of IL-1β [2, 4]: 2.1 ± 0.3 ng/24 h/mg protein
Plasma Total Cholesterol After Treatment ([3]; after four months of treatment): 167 mg/dL
Plasma Total Cholesterol After Treatment ([3]; after six months of treatment): 158 mg/dL and 204 mg/dL and 230 mg/dL and 183 mg/dL and 96 mg/dL
LPS-induced activation of NF-kβ (NF-kβ; LPS 1.0 μg/ml, 1 h): markedly inhibited for the LPS-induced activation of NF-kβ

O=C([O-])Cc1ccccc1.[Na+] [NaPA, sodium salt of phenylacetic acid]
Production of NO [1]: 6.9 ± 0.9 nmol/24 h/mg protein
Production of IL-1β [2]: 2.4 ± 0.2 ng/24 h/mg protein
expression of TNF-α in EAE brain (TNF-α; rat, in vivo, ip): blocked the induction of TNF-α
LPS-induced activation of NF-kβ (NF-kβ): markedly inhibited for the LPS-induced activation of NF-kβ

CC(=O)N[C@@H](CS)C(=O)O [NAC, N-acetyl cysteine]
expression of TNF-α in EAE brain (TNF-α; daily i.p. treatment from day 1): blocked the induction of TNF-α

From patent US8507219B2, “Method of treating inflammation with statins” (MUSC Foundation for Research Development, priority 1997, dated 2013)
